Reference: patent US20060069132A1, “Azolecarboxamide herbicides” (priority 2004, published 2006)

Columns and labels:
[1] = tested on: barnyardgrass; experiment: Test B pre-/postemergence herbicide test; format: in vivo, Echinochloa crus-galli
Method in brief: (§1)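 Pre: seeds sown, then sprayed. Post: 1–4-leaf plants (2–18 cm) sprayed at the same time. Paddy: flooded, treated at 2-leaf stage. Formulation: non-phytotoxic solvent with surfactant. Greenhouse 13–15 days; visual 0–100 score relative to controls.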

[2] = tested on: Surinam grass; experiment: Test B pre-/postemergence herbicide test; format: in vivo, Urochloa decumbens
Method in brief: (§2)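 Visual rating, 0 (no effect) to 100 (complete control), versus untreated controls after 13–15 d in greenhouse. Pre- and postemergence applications (postemergence plants 2–18 cm, 1–4 leaves); flooded paddy arm at 2-leaf stage. Compounds in non-phytotoxic solvent plus surfactant.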

[3] = tested on: cocklebur; experiment: Test B pre-/postemergence herbicide test; format: in vivo, Xanthium strumarium
Method in brief: as §1

[4] = tested on: corn; experiment: Test B pre-/postemergence herbicide test; format: in vivo, Zea mays
Method in brief: as §2

[5] = tested on: large crabgrass; experiment: Test B pre-/postemergence herbicide test; format: in vivo, Digitaria sanguinalis
Method in brief: as §2

[6] = tested on: giant foxtail; experiment: Test B pre-/postemergence herbicide test; format: in vivo, Setaria faberi
Method in brief: as §2

[7] = tested on: morningglory; experiment: Test B pre-/postemergence herbicide test; format: in vivo, Ipomoea coccinea
Method in brief: as §1

[8] = tested on: pigweed; experiment: Test B pre-/postemergence herbicide test; format: in vivo, Amaranthus retroflexus
Method in brief: as §2

[9] = tested on: velvetleaf; experiment: Test B pre-/postemergence herbicide test; format: in vivo, Abutilon theophrasti
Method in brief: as §2

[10] = tested on: blackgrass; experiment: Test B postemergence herbicide test; format: in vivo, Alopecurus myosuroides
Method in brief: (§3)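 Read-out: visual comparison with controls, scored 0 to 100, where 100 means complete control and 0 no effect. Formulated chemicals were applied postemergence to plants 2–18 cm tall (1- to 4-leaf), or to flooded-paddy plants at the 2-leaf stage, then held 13 to 15 days under glass.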

[11] = tested on: wheat; experiment: Test B postemergence herbicide test; format: in vivo, Triticum aestivum; design: key to Wheat plant response rating: 0 = no effect, 100 = complete control
Method in brief: (§4)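 Postemergence plants were sprayed with formulated test chemicals at 2 to 18 cm height (1- to 4-leaf stage); paddy species were grown to the 2-leaf stage. After 13 to 15 days in a greenhouse, injury was rated visually against untreated controls on a 0–100 scale (0 = no effect, 100 = complete control).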

[12] = tested on: wild oat; experiment: Test B postemergence herbicide test; format: in vivo, Avena fatua
Method in brief: as §4

[13] = tested on: rice; experiment: Test B flooded paddy test; format: in vivo, Oryza sativa; conditions: 1000 g ai/ha, scale 0 to 100 (0 no effect, 100 complete control)
Method in brief: as §3

[14] = tested on: small flower umbrella sedge; experiment: Test B flooded paddy test; format: in vivo, Cyperus difformis; conditions: 1000 g ai/ha, scale 0 to 100 (0 no effect, 100 complete control)
Method in brief: as §3

[15] = tested on: ducksalad; experiment: Test B flooded paddy test; format: in vivo, Heteranthera limosa; conditions: 1000 g ai/ha, scale 0 to 100 (0 no effect, 100 complete control)
Method in brief: as §3

[16] = 125 g ai/ha, 0 is no effect, 100 is complete control, preemergence
[17] = 125 g ai/ha, visual rating, scale 0 (no effect) to 100 (complete control), postemergence
[18] = 500 g ai/ha, visual rating, 0 = no effect, 100 = complete control, preemergence
[19] = postemergence, 500 g ai/ha, scale 0 to 100, 0 is no effect, 100 is complete control
[20] = 125 g ai/ha; visual rating, scale 0 (no effect) to 100 (complete control); postemergence
[21] = postemergence, 500 g ai/ha; scale 0 to 100, 0 is no effect, 100 is complete control
[22] = Postemergence, 500 g ai/ha, visual rating after 13 to 15 days, scale 0 (no effect) to 100 (complete control)
[23] = Preemergence, 500 g ai/ha, scale 0 to 100
[24] = postemergence, 125 g ai/ha, visual rating, scale 0 (no effect) to 100 (complete control)
[25] = preemergence, 125 g ai/ha, 0 to 100 scale, 0 is no effect, 100 is complete control
[26] = Postemergence, 500 g ai/ha; visual rating after 13 to 15 days, scale 0 (no effect) to 100 (complete control)
[27] = postemergence, 125 g ai/ha; visual rating, scale 0 (no effect) to 100 (complete control)
[28] = 500 g ai/ha, visual rating 0-100, 0 no effect, 100 complete control, preemergence
[29] = postemergence, 500 g ai/ha, visual rating, scale 0 (no effect) to 100 (complete control)
[30] = postemergence, 500 g ai/ha; visual rating, scale 0 (no effect) to 100 (complete control)

C=CCNC(=O)c1cccc(NC(=O)c2cc(C(C)(C)C)nn2C)n1 [Compound 318]
Plant response rating (0 to 100 scale), Barnyardgrass [1, 16]: 40
Barnyardgrass plant response rating [1, 17]: 40
Plant response rating, Barnyardgrass [1, 18]: 90
Barnyardgrass plant response rating [1, 19]: 70
Plant response rating (0 to 100 scale), Surinam Grass [2, 16]: 0
Surinam Grass plant response rating [2, 17]: 10
Plant response rating, Surinam Grass [2, 18]: 40
Surinam Grass plant response rating [2, 19]: 20
Plant response rating (0 to 100 scale), Cocklebur [3, 16]: 0
Cocklebur plant response rating [3, 17]: 10
Plant response rating, Cocklebur [3, 18]: 0
Cocklebur plant response rating [3, 19]: 80
Plant response rating (0 to 100 scale), Corn [4, 16]: 0
Corn plant response rating [4, 17]: 20
Plant response rating, Corn [4, 18]: 0
Corn plant response rating [4, 19]: 20
Plant response rating (0 to 100 scale), Crabgrass, Large [5, 16]: 10
Crabgrass, Large plant response rating [5, 17]: 10
Plant response rating, Crabgrass, Large [5, 18]: 90
Crabgrass, Large plant response rating [5, 19]: 60
Plant response rating (0 to 100 scale), Foxtail, Giant [6, 16]: 0
Foxtail, Giant plant response rating [6, 17]: 10
Plant response rating, Foxtail, Giant [6, 18]: 80
Foxtail, Giant plant response rating [6, 19]: 10
Plant response rating (0 to 100 scale), Morningglory [7, 16]: 0
Morningglory plant response rating [7, 17]: 0
Plant response rating, Morningglory [7, 18]: 30
Morningglory plant response rating [7, 19]: 80
Plant response rating (0 to 100 scale), Pigweed [8, 16]: 90
Pigweed plant response rating [8, 17]: 70
Plant response rating, Pigweed [8, 18]: 100
Pigweed plant response rating [8, 19]: 100
Plant response rating (0 to 100 scale), Velvetleaf [9, 16]: 20
Velvetleaf plant response rating [9, 17]: 40
Velvetleaf plant response rating [9, 19]: 80
Blackgrass plant response rating [10, 20]: 10
Blackgrass plant response rating [10, 21]: 10
Wheat plant response rating [11, 20]: 0
Wheat plant response rating [11, 21]: 10
Oat, Wild plant response rating [12, 20]: 0
Oat, Wild plant response rating [12, 21]: 30
Rice plant response rating [13]: 40
Sedge, Umbrella plant response rating [14]: 80
Ducksalad plant response rating [15]: 70

C=CCn1nc(C(C)(C)C)cc1C(=O)Nc1cccc(C(=O)NCC)c1 [Compound 56]
Plant response rating, Barnyardgrass [1, 22]: 20
Barnyardgrass plant response rating [1, 23]: 80
Barnyardgrass plant response rating [1, 24]: 20
Plant response rating, Barnyardgrass [1, 25]: 50
Plant response rating, Surinam Grass [2, 22]: 30
Surinam Grass plant response rating [2, 23]: 60
Surinam Grass plant response rating [2, 24]: 20
Plant response rating, Surinam Grass [2, 25]: 30
Plant response rating, Cocklebur [3, 22]: 80
Cocklebur plant response rating [3, 23]: 20
Cocklebur plant response rating [3, 24]: 80
Plant response rating, Cocklebur [3, 25]: 0
Plant response rating, Corn [4, 22]: 30
Corn plant response rating [4, 23]: 20
Corn plant response rating [4, 24]: 20
Plant response rating, Corn [4, 25]: 0
Plant response rating, Crabgrass, Large [5, 22]: 20
Crabgrass, Large plant response rating [5, 23]: 100
Crabgrass, Large plant response rating [5, 24]: 10
Plant response rating, Crabgrass, Large [5, 25]: 70
Plant response rating, Foxtail, Giant [6, 22]: 20
Foxtail, Giant plant response rating [6, 23]: 100
Foxtail, Giant plant response rating [6, 24]: 20
Plant response rating, Foxtail, Giant [6, 25]: 60
Plant response rating, Morningglory [7, 22]: 20
Morningglory plant response rating [7, 23]: 20
Morningglory plant response rating [7, 24]: 0
Plant response rating, Morningglory [7, 25]: 20
Plant response rating, Pigweed [8, 22]: 90
Pigweed plant response rating [8, 23]: 100
Pigweed plant response rating [8, 24]: 60
Plant response rating, Pigweed [8, 25]: 30
Plant response rating, Velvetleaf [9, 22]: 50
Velvetleaf plant response rating [9, 23]: 100
Velvetleaf plant response rating [9, 24]: 40
Plant response rating, Velvetleaf [9, 25]: 0
Plant response rating, Blackgrass [10, 26]: 10
Blackgrass plant response rating [10, 27]: 0
Plant response rating, Wheat [11, 26]: 20
Wheat plant response rating [11, 27]: 10
Plant response rating, Oat, Wild [12, 26]: 20
Oat, Wild plant response rating [12, 27]: 20
Rice plant response rating ([13]; visual rating, 13 to 15 days): 70
Sedge, Umbrella plant response rating ([14]; visual rating, 13 to 15 days): 80
Ducksalad plant response rating ([15]; visual rating, 13 to 15 days): 80

CCn1nc(C(C)(C)C)cc1C(=O)Nc1cccc(C(=O)NCC2CC2)c1 [Compound 62]
Plant response rating, Barnyardgrass [1, 22]: 50
Barnyardgrass plant response rating [1, 23]: 80
Barnyardgrass plant response rating [1, 24]: 20
Plant response rating, Barnyardgrass [1, 25]: 20
Plant response rating, Surinam Grass [2, 22]: 70
Surinam Grass plant response rating [2, 24]: 50
Plant response rating, Surinam Grass [2, 25]: 10
Plant response rating, Cocklebur [3, 22]: 100
Cocklebur plant response rating [3, 23]: 10
Cocklebur plant response rating [3, 24]: 70
Plant response rating, Cocklebur [3, 25]: 0
Plant response rating, Corn [4, 22]: 20
Corn plant response rating [4, 23]: 10
Corn plant response rating [4, 24]: 10
Plant response rating, Corn [4, 25]: 0
Plant response rating, Crabgrass, Large [5, 22]: 20
Crabgrass, Large plant response rating [5, 23]: 100
Crabgrass, Large plant response rating [5, 24]: 10
Plant response rating, Crabgrass, Large [5, 25]: 80
Plant response rating, Foxtail, Giant [6, 22]: 30
Foxtail, Giant plant response rating [6, 23]: 90
Foxtail, Giant plant response rating [6, 24]: 10
Plant response rating, Foxtail, Giant [6, 25]: 70
Plant response rating, Morningglory [7, 22]: 60
Morningglory plant response rating [7, 24]: 20
Plant response rating, Morningglory [7, 25]: 10
Plant response rating, Pigweed [8, 22]: 90
Pigweed plant response rating [8, 24]: 80
Plant response rating, Pigweed [8, 25]: 100
Plant response rating, Velvetleaf [9, 22]: 70
Velvetleaf plant response rating [9, 24]: 60
Plant response rating, Velvetleaf [9, 25]: 80
Plant response rating, Blackgrass [10, 26]: 70
Blackgrass plant response rating [10, 27]: 10
Plant response rating, Wheat [11, 26]: 10
Wheat plant response rating [11, 27]: 0
Plant response rating, Oat, Wild [12, 26]: 30
Oat, Wild plant response rating [12, 27]: 10
Rice plant response rating ([13]; visual rating, 13 to 15 days): 30
Sedge, Umbrella plant response rating ([14]; visual rating, 13 to 15 days): 80
Ducksalad plant response rating ([15]; visual rating, 13 to 15 days): 80

CCn1nc(C(C)(C)C)cc1C(=O)Nc1cccc(OCCCF)c1 [Compound 138]
Plant response rating, Barnyardgrass [1, 28]: 70
Barnyardgrass plant response rating [1, 24]: 10
Barnyardgrass plant response rating [1, 29]: 20
Plant response rating, Barnyardgrass [1, 25]: 10
Plant response rating, Surinam Grass [2, 28]: 30
Surinam Grass plant response rating [2, 24]: 20
Surinam Grass plant response rating [2, 29]: 30
Plant response rating, Surinam Grass [2, 25]: 0
Plant response rating, Cocklebur [3, 28]: 10
Cocklebur plant response rating [3, 24]: 40
Cocklebur plant response rating [3, 29]: 90
Plant response rating, Cocklebur [3, 25]: 0
Plant response rating, Corn [4, 28]: 10
Corn plant response rating [4, 24]: 20
Corn plant response rating [4, 29]: 30
Plant response rating, Corn [4, 25]: 0
Plant response rating, Crabgrass, Large [5, 28]: 100
Crabgrass, Large plant response rating [5, 24]: 20
Crabgrass, Large plant response rating [5, 29]: 20
Plant response rating, Crabgrass, Large [5, 25]: 40
Plant response rating, Foxtail, Giant [6, 28]: 70
Foxtail, Giant plant response rating [6, 24]: 20
Foxtail, Giant plant response rating [6, 29]: 30
Plant response rating, Foxtail, Giant [6, 25]: 30
Plant response rating, Morningglory [7, 28]: 20
Morningglory plant response rating [7, 24]: 20
Morningglory plant response rating [7, 29]: 60
Plant response rating, Morningglory [7, 25]: 0
Plant response rating, Pigweed [8, 28]: 100
Pigweed plant response rating [8, 24]: 60
Pigweed plant response rating [8, 29]: 90
Plant response rating, Pigweed [8, 25]: 60
Plant response rating, Velvetleaf [9, 28]: 40
Velvetleaf plant response rating [9, 24]: 20
Velvetleaf plant response rating [9, 29]: 50
Plant response rating, Velvetleaf [9, 25]: 0
Blackgrass plant response rating [10, 27]: 0
Blackgrass plant response rating [10, 30]: 20
Wheat plant response rating [11, 27]: 20
Wheat plant response rating [11, 30]: 30
Oat, Wild plant response rating [12, 27]: 20
Oat, Wild plant response rating [12, 30]: 30
Rice plant response rating ([13]; visual rating, 13 to 15 days): 50
Sedge, Umbrella plant response rating ([14]; visual rating, 13 to 15 days): 80
Ducksalad plant response rating ([15]; visual rating, 13 to 15 days): 80
